According to US9884063B2, “Amido-substituted azole compounds” (Bayer Pharma Aktiengesellschaft, priority 2014, dated 2018):
Several values for one entry are separate records, joined by “and”; a condition that tells them apart may be missing. Identical values can stand only once. Counter-ions that a name gives are not always drawn.

Columns and labels:
TNKS2 = target: T1, TNKS2 (Homo sapiens, UniProt Q9H2K2); assay: Modified TNKS2 Assay 3 (BPS kit #80578, biotin-NAD+, 96 well); format: biochemical; details: human TNKS2, BPS kit #80578, 96 well
T1 sequence (Q9H2K2 1-1166): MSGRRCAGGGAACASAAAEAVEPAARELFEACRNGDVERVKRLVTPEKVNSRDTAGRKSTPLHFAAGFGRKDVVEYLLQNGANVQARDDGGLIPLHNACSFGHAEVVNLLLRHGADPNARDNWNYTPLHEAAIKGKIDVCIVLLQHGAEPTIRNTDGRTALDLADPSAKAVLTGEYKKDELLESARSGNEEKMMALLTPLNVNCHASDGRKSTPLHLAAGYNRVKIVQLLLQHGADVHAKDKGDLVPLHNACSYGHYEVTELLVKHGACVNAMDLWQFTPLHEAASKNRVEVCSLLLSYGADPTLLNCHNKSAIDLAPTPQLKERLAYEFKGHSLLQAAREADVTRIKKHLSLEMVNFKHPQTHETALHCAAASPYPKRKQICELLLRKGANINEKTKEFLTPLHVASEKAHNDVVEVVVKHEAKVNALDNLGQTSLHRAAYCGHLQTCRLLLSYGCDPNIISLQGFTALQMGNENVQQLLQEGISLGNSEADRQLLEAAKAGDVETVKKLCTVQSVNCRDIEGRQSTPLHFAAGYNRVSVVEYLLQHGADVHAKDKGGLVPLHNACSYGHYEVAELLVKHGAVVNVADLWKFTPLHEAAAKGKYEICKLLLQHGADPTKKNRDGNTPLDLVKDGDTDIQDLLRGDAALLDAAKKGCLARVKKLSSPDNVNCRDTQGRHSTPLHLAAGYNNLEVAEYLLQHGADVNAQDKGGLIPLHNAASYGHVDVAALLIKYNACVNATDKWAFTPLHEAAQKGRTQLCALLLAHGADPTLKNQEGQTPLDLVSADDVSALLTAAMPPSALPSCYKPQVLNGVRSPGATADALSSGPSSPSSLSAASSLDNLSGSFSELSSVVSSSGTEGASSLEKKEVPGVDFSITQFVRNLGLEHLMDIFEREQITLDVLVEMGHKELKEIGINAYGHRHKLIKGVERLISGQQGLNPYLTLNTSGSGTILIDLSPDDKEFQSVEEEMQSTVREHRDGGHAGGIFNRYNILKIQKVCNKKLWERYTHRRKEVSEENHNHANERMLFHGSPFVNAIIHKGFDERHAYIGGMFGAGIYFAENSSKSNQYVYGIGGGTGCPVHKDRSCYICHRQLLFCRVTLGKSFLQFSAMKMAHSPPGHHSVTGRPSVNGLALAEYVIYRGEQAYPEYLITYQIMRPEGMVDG
Procedure, shortened: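 Commercial kit assay measuring TNKS2-catalysed incorporation of biotin-labelled NAD+ into a protein substrate, detected by streptavidin-HRP chemiluminescence. Run per manufacturer's protocol; IC50 is the concentration halving the normalised signal.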

[1] = tested on: wildtype Wnt signaling cascade; assay: HEK293 TOP Assay (Super TopFlash luciferase reporter, Wnt-3a stimulated); format: cell-based; details: Homo sapiens, HEK293 TOP reporter cell line, Wnt-3a at EC50, 16 hours incubation, compound dilution series 50 μM to 15 nM
Procedure, shortened: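 HEK293 cells stably carrying Super TopFlash (TOP) or FOP reporter, stimulated with recombinant human Wnt-3a (2500–5 ng/ml, two-fold steps). Both lines incubated in parallel with compound from 50 μM to 15 nM (3.16-fold) in CAFTY buffer pH 7.4 with 2 mM Ca2+ and 0.01% BSA; selectivity judged TOP vs FOP.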

| SMILES | IC50 (TNKS2) | IC50 ([1]; HEK293, 16 h) | IC50 [1] |
| --- | --- | --- | --- |
| O=C(Nc1ccc(NC(=O)c2ocnc2C(=O)NCCN2CC[C@H](F)C2)cc1)c1ccc(F)cc1Cl [Example 221, N^5-{4-[(2-chloro-4-fluorobenzoyl)amino]phenyl}-N^4-{2-[(3S)-3-fluoropyrrolidin-1-yl]ethyl}-1,3-oxazole-4,5-dicarboxamide] | 0.49 µM | 0.82 µM | – |
| O=C(Nc1ccc(NC(=O)c2ocnc2C(=O)NCCN2CC[C@@H](F)C2)cc1)c1ccc(F)cc1Cl [Example 222, N^5-{4-[(2-chloro-4-fluorobenzoyl)amino]phenyl}-N^4-{2-[(3R)-3-fluoropyrrolidin-1-yl]ethyl}-1,3-oxazole-4,5-dicarboxamide] | 0.19 µM | 0.67 µM | – |
| CC(C)(O)CNC(=O)c1[nH]cnc1C(=O)Nc1ccc(NC(=O)c2ccc(F)cc2Cl)cc1 [Example 223, N^4-{4-[(2-chloro-4-fluorobenzoyl)amino]phenyl}-N^5-(2-hydroxy-2-methylpropyl)-1H-imidazole-4,5-dicarboxamide] | 0.34 µM | 0.33 µM | – |
| O=C(Nc1ccc(NC(=O)c2nc[nH]c2C(=O)NCCN2CCC(F)(F)CC2)cc1)c1ccc(F)cc1Cl [Example 224, N^4-{4-[(2-chloro-4-fluorobenzoyl)amino]phenyl}-N^5-[2-(4,4-difluoropiperidin-1-yl)ethyl]-1H-imidazole-4,5-dicarboxamide] | 0.14 µM | 1.25 µM | – |
| O=C(Nc1ccc(NC(=O)c2nc[nH]c2C(=O)NCCN2CCCC(F)(F)C2)cc1)c1ccc(F)cc1Cl [Example 225, N^4-{4-[(2-chloro-4-fluorobenzoyl)amino]phenyl}-N^5-[2-(3,3-difluoropiperidin-1-yl)ethyl]-1H-imidazole-4,5-dicarboxamide] | 0.05 µM | 0.8 µM | – |
| O=C(Nc1ccc(NC(=O)c2nc[nH]c2C(=O)NCCN2CCOCC2)cc1)c1ccc(F)cc1Cl [Example 227, N^4-{4-[(2-chloro-4-fluorobenzoyl)amino]phenyl}-N^5-[2-(morpholin-4-yl)ethyl]-1H-imidazole-4,5-dicarboxamide] | 0.02 µM | 0.12 µM | – |
| O=C(Nc1ccc(NC(=O)c2nc[nH]c2C(=O)NCCN2CCCC2)cc1)c1ccc(F)cc1Cl [Example 228, N^4-{4-[(2-chloro-4-fluorobenzoyl)amino]phenyl}-N^5-[2-(pyrrolidin-1-yl)ethyl]-1H-imidazole-4,5-dicarboxamide] | 0.004 µM and < 0.0005 µM | 0.03 µM | – |
| O=C(Nc1ccc(NC(=O)c2nc[nH]c2C(=O)NCCN2CCC(F)CC2)cc1)c1ccc(F)cc1Cl [Example 230, N^4-{4-[(2-chloro-4-fluorobenzoyl)amino]phenyl}-N^5-[2-(4-fluoropiperidin-1-yl)ethyl]-1H-imidazole-4,5-dicarboxamide] | 0.02 µM | 0.2 µM | – |
| O=C(Nc1ccc(NC(=O)c2nc[nH]c2C(=O)NCCN2CC[C@@H](F)C2)cc1)c1ccc(F)cc1Cl [Example 231, N^4-{4-[(2-chloro-4-fluorobenzoyl)amino]phenyl}-N^5-{2-[(3R)-3-fluoropyrrolidin-1-yl]ethyl}-1H-imidazole-4,5-dicarboxamide] | 0.02 µM | 0.07 µM | – |
| O=C(Nc1ccc(NC(=O)c2nc[nH]c2C(=O)NCCN2CC[C@H](F)C2)cc1)c1ccc(F)cc1Cl [Example 232, N^4-{4-[(2-chloro-4-fluorobenzoyl)amino]phenyl}-N^5-{2-[(3S)-3-fluoropyrrolidin-1-yl]ethyl}-1H-imidazole-4,5-dicarboxamide] | 0.04 µM | 0.22 µM | – |
| O=C(Nc1ccc(NC(=O)c2nc[nH]c2C(=O)NCC2CCOCC2)cc1)c1ccc(F)cc1Cl [Example 233, N^4-{4-[(2-chloro-4-fluorobenzoyl)amino]phenyl}-N^5-(tetrahydro-2H-pyran-4-ylmethyl)-1H-imidazole-4,5-dicarboxamide] | 0.16 µM | 0.45 µM | – |
| O=C(Nc1ccc(NC(=O)c2nc[nH]c2C(=O)NC2CCOCC2)cc1)c1ccc(F)cc1Cl [Example 234, N^4-{4-[(2-chloro-4-fluorobenzoyl)amino]phenyl}-N^5-(tetrahydro-2H-pyran-4-yl)-1H-imidazole-4,5-dicarboxamide] | 0.02 µM | 0.46 µM | – |
| O=C(Nc1ccc(NC(=O)c2nc[nH]c2C(=O)NCC2CCOC2)cc1)c1ccc(F)cc1Cl (centres unmarked) [Example 235, N^4-{4-[(2-chloro-4-fluorobenzoyl)amino]phenyl}-N^5-(tetrahydrofuran-3-ylmethyl)-1H-imidazole-4,5-dicarboxamide] | 0.15 µM | 0.24 µM | – |
| O=C(Nc1ccc(NC(=O)c2nc[nH]c2C(=O)NCC2CCCO2)cc1)c1ccc(F)cc1Cl (centres unmarked) [Example 237, N^4-{4-[(2-chloro-4-fluorobenzoyl)amino]phenyl}-N^5-(tetrahydrofuran-2-ylmethyl)-1H-imidazole-4,5-dicarboxamide] | 0.23 µM | 0.43 µM | – |
| CNC(=O)c1nc[nH]c1C(=O)Nc1ccc(NC(=O)c2ccc(OC)cc2Cl)cc1 [Example 246, N^5-{4-[(2-chloro-4-methoxybenzoyl)amino]phenyl}-N^4-methyl-1H-imidazole-4,5-dicarboxamide] | 0.06 µM | 0.2 µM | – |
| C[C@H]1CCCCN1CCNC(=O)c1[nH]cnc1C(=O)Nc1ccc(NC(=O)c2ccc(F)cc2Cl)cc1 [Example 266, N^4-{4-[(2-chloro-4-fluorobenzoyl)amino]phenyl}-N^5-{2-[(25)-2-methylpiperidin-1-yl]ethyl}-1H-imidazole-4,5-dicarboxamide formic acid salt] | 0.0009 µM | 0.03 µM | – |
| CC(CN1CCOCC1)NC(=O)c1[nH]cnc1C(=O)Nc1ccc(NC(=O)c2ccc(F)cc2Cl)cc1 (centres unmarked) [Example 268, N^4-{4-[(2-chloro-4-fluorobenzoyl)amino]phenyl}-N^5-[1-(morpholin-4-yl)propan-2-yl]-1H-imidazole-4,5-dicarboxamide] | 0.003 µM | 0.06 µM | – |
| O=C(Nc1ccc(NC(=O)c2nc[nH]c2C(=O)NCCN2CCC[C@H](O)C2)cc1)c1ccc(F)cc1Cl [Example 271, N^4-{4-[(2-chloro-4-fluorobenzoyl)amino]phenyl}-N^5-{2-[(3S)-3-hydroxypiperidin-1-yl]ethyl}-1H-imidazole-4,5-dicarboxamide] | 0.002 µM | 0.03 µM | – |
| O=C(Nc1ccc(NC(=O)c2nc[nH]c2C(=O)NCCCN2CCCC2)cc1)c1ccc(F)cc1Cl [Example 274, N^4-{4-[(2-chloro-4-fluorobenzoyl)amino]phenyl}-N^5-[3-(pyrrolidin-1-yl)propyl]-1H-imidazole-4,5-dicarboxamide] | 0.009 µM | 0.29 µM | – |
| O=C(Nc1ccc(NC(=O)c2nc[nH]c2C(=O)NCCN2CCC[C@@H](F)C2)cc1)c1ccc(F)cc1Cl [Example 277, N^4-{4-[(2-chloro-4-fluorobenzoyl)amino]phenyl}-N^5-{2-[(3R)-3-fluoropiperidin-1-yl]ethyl}-1H-imidazole-4,5-dicarboxamide] | 0.03 µM | 0.12 µM | – |
| CC(C)(N)CNC(=O)c1[nH]cnc1C(=O)Nc1ccc(NC(=O)c2ccc(F)cc2Cl)cc1 [Example 280, N^5-(2-amino-2-methylpropyl)-N^4-{4-[(2-chloro-4-fluorobenzoyl)amino]phenyl}-1H-imidazole-4,5-dicarboxamide] | 0.03 µM | 1.05 µM | – |
| O=C(Nc1ccc(NC(=O)c2nc[nH]c2C(=O)N[C@@H]2CCNC2)cc1)c1ccc(F)cc1Cl [Example 282, N^4-{4-[(2-chloro-4-fluorobenzoyl)amino]phenyl}-N^5-[(3R)-pyrrolidin-3-yl]-1H-imidazole-4,5-dicarboxamide hydrochloride salt] | 0.01 µM | – | 0.97 µM |
